# Experimental data from patent publication US8399416B2, “Method of using heparin binding motif for treating asthma” (National Tsing Hua University, priority 2008, dated 2013).
# Positions count from the first letter of the chain named. Read-outs that look alike come from different tables or passages of the source. No end group written: not given here.
# Assays:
# ECP = biological target: T1, ECP (Homo sapiens, UniProt P12724); assay: FACE analysis of ECP binding to heparin oligosaccharides; conditions: AMAC-labeled oligosaccharide incubated with ECP, 1% agarose gel
# T1 construct: His6 (C); made in house; host or cells: E. coli BL21-CodonPlus (DE3)
# T1 sequence (P12724 28-160): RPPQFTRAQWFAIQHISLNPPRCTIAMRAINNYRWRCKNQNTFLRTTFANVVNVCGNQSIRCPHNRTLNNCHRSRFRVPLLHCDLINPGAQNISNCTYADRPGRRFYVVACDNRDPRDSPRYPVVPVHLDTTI
# Procedure: FIG. 2. FACE analysis to evaluate binding of ECP to various sugar-containing substrates. A, AMAC-labeled LMWH was incubated with or without ECP in PBS for 10 min at 25° C., and the binding reaction products were separated on a 1% agarose gel. The numbers above the gel indicate the molar ratio of ECP to LMWH. B, Representative oligosaccharide binding pattern of ECP. AMAC-labeled heparin dp3 (10.8 nmol), dp5 (3.3 nmol), dp7 (1.4 nmol), dp9 (1.1 nmol), LMWH (0.03 nmol) and PI-88 (0.03 nmol) were incubated with or without 10-fold molar excess of ECP, and the binding reaction products separated on a 1% agarose gel. C, Representative oligosaccharide binding pattern of EDN. AMAC-labeled heparin dp3 (10.8 nmol), dp5 (3.3 nmol), dp7 (1.4 nmol), dp9 (1.1 nmol), LMWH (0.03 nmol) and PI-88 (0.03 nmol) were incubated with or without 10-fold molar excess of ECP, and the binding reaction products separated on a 1% agarose gel.
# Thus, the minimal heparin length (or disaccharide unit) required to interact with ECP was investigated by FACE (Fluorescence-assisted carbohydrate electrophoresis).
# Initially, ECP was co-incubated with LMWH at various molar ratios, and the binding products were analyzed by gel electrophoresis. […]
# [1] = system: ECP binding to Beas-2B cells; assay: Competitive inhibition of MBP-ECP binding to Beas-2B cells (cell ELISA); format: cell-based, human; conditions: Fifty micrograms per mililiter oligosaccharide; 5 μg/ml MBP-ECP; 4° C.
# Procedure: FIG. 3. Heparin oligosaccharides inhibit ECP binding to cells. […] The amount of MBP-ECP bound to cells without GAG treatment was set to 100%. C, control (cells were incubated with MBP.) The data shown are the means of triplicate experiments.
# FIG. 7. Synthetic peptides inhibit ECP binding to cells. […] The data shown are the means of triplicate experiments.
# Beas-2B, a human bronchial epithelial cell line, was cultured in RPMI 1640 medium (Sigma-Aldrich) supplemented with heat-inactivated 10% fetal bovine serum (Gibco/Invitrogen, Carlsbad, Calif.).
# The ability of MBP-ECP to bind cells in the presence of serial dilutions of oligosaccharides or peptides was determined as described (Fan, T. C., et al. (2007) Traffic 8, 1778-1795). At the present invention, synthetic heparins (dp3-9) were tested for their ability to interfere with ECP binding to Beas-2B cells. Briefly, confluent monolayers of Beas-2B cells in 96-well plates were pretreated with various concentrations of oligosaccharides or peptides in serum-free RPMI 1640 medium at 4° C. for 30 min before incubation with 5 μg/ml MBP-ECP at 4° C. for 1 h. The cells were then washed with ice-cold PBS and fixed with 2% PFA at room temperature for 15 min prior to blocking with 2% BSA/PBS at room temperature for 90 min. The level of bound MBP-ECP was quantified by ELISA analysis. MBP-ECP was detected using mouse monoclonal anti-MBP and goat anti-mouse horseradish peroxidase (HRP)-conjugated secondary antibody, followed by the enhanced chemiluminescence detection system. The amount of MBP-ECP bound to cells without oligosaccharide or peptide treatment was set to 100%.
# ECP wt = biological target: T2, ECP wt (Homo sapiens, UniProt P12724); assay: Intrinsic tryptophan fluorescence titration of ECP wt with heparin oligosaccharides; format: binding
# T2 construct: His6 (C); made in house; host or cells: E. coli BL21-CodonPlus (DE3)
# T2 sequence (P12724 28-160): T1 sequence (P12724 28-160)
# Procedure: (§1) FIG. 5. ITFE profiles of ECP wt and mt1 with dp5. Tryptophan titration emission spectra of […] ECP wt or mt1 bound with dp5. The emission spectra at 340 nm were recorded. The resulting isotherms were fitted by nonlinear regression least-squares computer fit using the KaleidaGraph Synergy Software. ΔF, the relative fluorescence change, equals F0−Fobs, where F0 and Fobs represent the initial and observed fluorescence values, respectively.
# (§2) The binding affinities of wild-type and mutant ECP for heparin oligosaccharides were subsequently monitored by intrinsic tryptophan fluorescence titration (Lau, E. K., et al. (2004) The Journal of biological chemistry 279, 22294-22305).
# (§3) Binding of ECP to heparin was monitored by changes in intrinsic tryptophan fluorescence emission (IFTE). ECP (200 nM) in PBS at 25° C. was titrated with small aliquots of a high concentration of pentasaccharides with minimal dilution (<2%). Protein fluorescence measurements were recorded 2 min after each addition on a Hitachi 8000 spectrofluorimeter at emission wavelength of 340 nm using an excitation wavelength of 280 nm. ΔF, the relative fluorescence change, equals F0−Fobs, where F0 and Fobs represent the initial and observed fluorescence values, respectively. […]
# ECP mt1 = biological target: T3, ECP mt1 (Homo sapiens, UniProt P12724, K65A/R61A/R63A/W62A); assay: Intrinsic tryptophan fluorescence titration of ECP mt1 with heparin oligosaccharides; format: binding
# T3 construct: recombinant mature ECP was injected into the rat circulation; His6 (C); made in house; host or cells: E. coli BL21-CodonPlus(DE3)
# T3 sequence (P12724 28-160 R61A/W62A/R63A/K65A): T1 sequence (P12724 28-160) with R34A, W35A, R36A, K38A
# Procedure: as §1
# Amino acid residues R34, W35, R36, and K38 of ECP were simultaneously substituted to alanine using QuickChange site-directed mutagenesis (Stratagene, La Jolla, Calif.) and the resultant mutant was named ECP mt1. […]
# as §2
# as §3, with “ECP (200 nM) in PBS at 25° C. was titrated with small aliquots of a high concentration of pentasaccharides with minimal dilution (<2%).” left out
# C1 peptide = C1 peptide (Homo sapiens, UniProt P12724); assay: Tryptophan fluorescence titration of C1 peptide with heparin oligosaccharides; format: binding
# Procedure: FIG. 10. Titration profiles of synthetic peptides by synthetic heparin oligosaccharides. Titrations were carried out on 1 μM peptides in the presence of heparin oligosaccharides. The Kd of each peptide-oligosaccharide interaction was determined by measuring the fluorescence change of intrinsic tryptophan at 340 nm. Data were fitted to a single-binding-site curve using nonlinear least-squares analysis.
# as §3
# [2] = system: peri-bronchiolar and alveolar inflammation; set-up: species or system mice; conditions: mouse, in vivo
# From the text: FIG. 15. Tissue pathology staining in mice. 5-μm formalin-fixed lung sections were stained with H & E in (A) control (B) mIT, (C) eIN, (D) eIN+mIT, (E) mIT+eIN and (F) eIN+mIT+eIN mice. (G) Peribronchial and alveolar inflammation scores.
# Animals Study protocol Female Balb/c mice 8 weeks of age were obtained from the National Laboratory Breeding Research Center in Taiwan and were raised in a specific pathogen-free environment. The mice were divided into six groups: (1) control, (2) mite intra-tracheal (mIT) alone, (3) ECP^32-41 (SEQ ID NO: 9) intranasal, (eIN) alone, (4) pre-treated group: eIN+mIT, (5) post-treated group: mIT+eIN and (6) pre+post-treated group eIN+mIT+eIN. Mite crude extract allergen (1.6 μg/μl) was prepared and well emulsified in complete Freund's adjuvant (CFA; Sigma, St Louis, Mo., USA) at a ratio of 1:1 at 4° C. The mIT, eIN and eIN+mIT groups were immunized subcutaneously with 50 μl emulsified mite protein on day 1 and day 8. […]
# Histopathological analysis Lung sections stained with hematoxylin and eosin (H&E) were assigned a unit value for alveolar, peri-bronchiolar and total inflammation by computing the means of three independent scores for three randomly selected view-fields. […] Total inflammatory scores were determined as the sum of the peri-bronchiolar and alveolar inflammatory scores. […]
molecule,measurement,setting,value
CO[C@H]1O[C@H](COS(=O)(=O)O)[C@@H](O[C@@H]2O[C@@H](C(=O)O)[C@@H](O[C@H]3O[C@H](COS(=O)(=O)O)[C@@H](O[C@@H]4O[C@@H](C(=O)O)[C@@H](O[C@H]5O[C@H](COS(=O)(=O)O)[C@@H](O)[C@H](O)[C@H]5NS(=O)(=O)O)[C@H](O)[C@H]4OS(=O)(=O)O)[C@H](O)[C@H]3NS(=O)(=O)O)[C@H](O)[C@H]2OS(=O)(=O)O)[C@H](O)[C@H]1NS(=O)(=O)O [dp5],binding to ECP (FACE),ECP,shortest heparin fragment that retained the ability to bind ECP
same,inhibition of ECP binding to cells,[1],50%
same,Kd,"ECP wt; PBS at 25° C., read-out: Kd, ECP wt",140 nM
same,Kd,"ECP mt1; PBS at 25° C., read-out: Kd, ECP mt1",568 nM
same,Kd,"C1 peptide; 1 μM peptide; tryptophan fluorescence at 340 nm; read-out: Kd, C1 peptide",275 nM
CO[C@H]1O[C@H](COS(=O)(=O)O)[C@@H](O[C@@H]2O[C@@H](C(=O)O)[C@@H](O[C@H]3O[C@H](COS(=O)(=O)O)[C@@H](O[C@@H]4O[C@@H](C(=O)O)[C@@H](O[C@H]5O[C@H](COS(=O)(=O)O)[C@@H](O[C@@H]6O[C@@H](C(=O)O)[C@@H](O[C@H]7O[C@H](COS(=O)(=O)O)[C@@H](O[C@@H]8O[C@@H](C(=O)O)[C@@H](O[C@H]9O[C@H](COS(=O)(=O)O)[C@@H](O)[C@H](O)[C@H]9NS(=O)(=O)O)[C@H](O)[C@H]8OS(=O)(=O)O)[C@H](O)[C@H]7NS(=O)(=O)O)[C@H](O)[C@H]6OS(=O)(=O)O)[C@H](O)[C@H]5NS(=O)(=O)O)[C@H](O)[C@H]4OS(=O)(=O)O)[C@H](O)[C@H]3NS(=O)(=O)O)[C@H](O)[C@H]2OS(=O)(=O)O)[C@H](O)[C@H]1NS(=O)(=O)O [dp9],Kd,"ECP wt; read-out: Kd, ECP wt, PBS at 25° C.",62.6 nM
same,Kd,"ECP mt1; read-out: Kd, ECP mt1, PBS at 25° C.",400 nM
same,Kd,"C1 peptide; read-out: Kd, C1 peptide; 1 μM peptide; tryptophan fluorescence at 340 nm",229 nM
NYRWRCKNQN [ECP^32-41],allergic airway inflammatory pathologies (H&E),[2],did not demonstrate allergic airway inflammatory pathologies
